Data taken from a melting point compilation (Tetko et al.; mined from patent text by program, amines drawn as free bases though some values may be those of a salt).
Residues, ends and D or L forms follow the SMILES beside them. *: point of attachment. Cbz = O=C(OCc1ccccc1)*

Row | Structure (SMILES) | melting point [°C]
1 | O=C(C1CCN(c2ccncn2)CC1)N1CCN(S(=O)(=O)c2ccc3cc(Cl)ccc3c2)CC1 | 218 to 219
2 | Nc1nc2ccccc2c2c1nc1n2CCOC1 | 258 to 259
3 | CN=C(NC#N)N1CCc2nc(N)sc2C1 | 231 to 234
4 | O=C(O)C(=O)Nc1cccc(NC(=O)C(=O)O)n1 | > 310
5 | CC1(OC(=O)C#CC2C(C(=O)OC(C#N)c3cccc(Oc4ccccc4)c3)C2(C)C)CCC1 (centres undefined) | 76
6 | C=COC(=O)N1C[C@@H]2C(=O)CCC(c3ccccc3)(c3ccccc3)[C@@H]2C1 (racemic) | 178
7 | O=S1(=O)NCN(C2CC2)c2ccc(O)cc21 | 187 to 189
8 | Cc1c(C(C)N(O)C(N)=O)sc2ccccc12 (centres undefined) | 130 to 132
9 | CCc1ccc2c(c1)C(=O)c1ccc(-c3nnn[nH]3)cc1S2(=O)=O | 239
10 | COc1ccc2c(c1)CCN=C2C | 206 to 207
11 | O=C(O)CCN1CCN(C2=Nc3ccccc3Sc3ccc(Cl)cc32)CC1 | 120 to 121
12 | COc1ccccc1C=C1NC(=O)NC1=O | 174 to 179
13 | O=C(Cc1cccs1)Nc1cc(N2CC(c3ccccc3)OC2=O)ccn1 (centres undefined) | 109 to 110
14 | N#Cc1cccc2c1NC(=O)C2c1ncnc2c1cnn2C1CCCC1 (centres undefined) | 327 to 332
15 | COc1ccc(-c2[nH]nc3c2C(=O)c2c(NC(=O)Nc4ccccc4)cccc2-3)cc1 | > 300
16 | COC(=O)C(Cc1ccc(-c2cccc(CNCC(=O)c3ccccc3)c2)cc1)Nc1ccccc1C(=O)c1ccccc1 (centres undefined) | 75
17 | COC(=O)c1cc2ccc(C(=O)NC(CO)CO)cc2[nH]1 | 205 to 207
18 | Cn1c([N+](=O)[O-])cnc1-c1nc(CCl)cs1 | 160 to 162
19 | Nc1ccc(Oc2cc(F)c(C(F)(F)F)c(Cl)c2)cc1 | 55 to 57
20 | CN(C)C(=S)SC(C[N+](=O)[O-])c1cccs1 (centres undefined) | 88 to 90
21 | O=c1ccc(N2CCC(CCCO)CC2)n[nH]1 | 174
22 | CCCCCCCCCCCCCCC1COC2(CC(c3ccccc3)NC(c3ccccc3)C2)O1 (centres undefined) | 63 to 70
23 | COC(=O)c1cc(N)n[nH]1 | 134
24 | CCCC(=O)N(C)c1cccc(-c2ccc3nnc(C)n3n2)c1 | 140 to 143
25 | CCS(=O)(=O)c1ccc(Oc2cc(Cl)c(Cl)cc2Cl)nc1 | 120 to 122

Row | Structure (SMILES) | melting point [°C]
26 | Oc1cnc(C2CCCCC2)nc1 | 163
27 | CCOC(=O)C=Cc1ccc(CCNS(=O)(=O)C=Cc2ccc(Cl)cc2)cc1 | 131 to 132
28 | COc1cccc(C(=O)NCCCCCCCNC(=O)c2cccc(OC)c2)c1 | 109 to 112
29 | OCCNc1c(Br)cnc2cc(Cl)ccc12 | 169 to 170
30 | CC(C)(C)OC(=O)N1CCC(=O)N1c1ccc2ccccc2n1 | 112
31 | CC(=NOCC(=O)O)c1ccc(Cl)cc1 | 116
32 | CCN1CCc2sc3ncn(CCCl)c(=O)c3c2C1 | 94 to 96
33 | Nc1cc(Cl)nc(C(=O)O)c1C(F)F | 149 to 151
34 | Cc1nc2cc(Sc3cccc4cnccc34)c([N+](=O)[O-])cc2c(=O)[nH]1 | > 270
35 | CSc1cccc2c3c(n(Cc4ccc(Cl)cc4)c12)C(CC(=O)O)CCC3 (centres undefined) | 141 to 142
36 | CCOC(=O)c1ncn(-c2cc(C(F)(F)F)ccc2[N+](=O)[O-])c1C | 140
37 | Cc1ccc(-c2nc3ccc(C(C)(C)CNC=O)cc3[nH]2)cc1 | 193 to 195
38 | O=C(O)CCCCCCN(Cc1ccccc1)C(=O)c1cn2c3c(cccc13)CCC2 | 45 to 47
39 | Cc1nc(-n2cnn(CC3CC3)c2=O)sc1C(N)=O | 180 to 181
40 | Nc1ccc2oc(=O)c(N)cc2c1 | 183 to 186
41 | C[C@H](Cn1ncnn1)n1cnc2cc3c(=O)n(Cc4c[nH]nn4)nnc3cc2c1=O | 180 to 182
42 | COC(=O)C(Cc1ccccc1)NC(=O)C(Cc1ccccc1)NC(=O)CNC(=O)OCc1ccccc1 (stereo not drawn) (Cbz-Gly-Phe-Phe-OMe; configuration not given here) | 122 to 124
43 | CC(=O)c1ccc(Cc2cn(-c3ccc(F)cc3)c3ncccc3c2=O)cc1 | 227 to 229
44 | COc1ccc2c(c1)OCC(NC(=O)c1cc(Cl)ccc1OC)C2 (centres undefined) | 92 to 93
45 | COc1cc(NC(=O)CCCCCN2CC(C)OC(C)C2)c2nccc(C)c2c1 (centres undefined) | 87 to 90
46 | O=C1CC(c2cccc(-n3ccnc3)c2)=Nc2cc(O)c(-c3ccc(F)cc3)cc2N1 | 250
47 | CCC[C@H]1CC[C@H](c2ccc(CCc3ccc(C#N)cc3)cc2)CC1 | 36
48 | CCc1cccc(C)c1NC(=O)CCBr | 149 to 150
49 | CSc1nc2cccccc-2n1 | 101 to 102
50 | Clc1ccccc1N1CCN(Cc2nc3ccccc3[nH]2)CC1 | 245 to 246

Row | Structure (SMILES) | melting point [°C]
51 | CN1CCN(c2ccc(Nc3cc(-c4cccc(-n5ncc6cc(C(C)(C)C)cc(F)c6c5=O)c4CO)nn(C)c3=O)nc2)CC1 | 260 to 264
52 | O=C(NC(=O)c1ccc(F)cc1Cl)Nc1ccc(OC(F)(F)C(F)Cl)c(Cl)c1 (centres undefined) | 186
53 | CN(C)c1cnc([N+](=O)[O-])cn1 | 221 to 223
54 | COc1ccc(CN(CCN(C)CCCCNC(=O)NCCSCc2csc(NC(=N)N)n2)c2ccccn2)cc1 | 104 to 106
55 | NC(=O)COCCN1CCN(C(c2ccccc2)c2ccccc2)CC1 | 119 to 120
56 | CO[C@](C)(c1cc(F)cc(OCc2ccc3ccccc3c2)c1)[C@H](C)O (racemic) | 62 to 63
57 | CC(=O)Nc1cccc2c(Br)ccc(C)c12 | 227 to 229
58 | COc1nc(C)nc(NC(=O)NS(=O)(=O)c2cc([N+](=O)[O-])cs2)n1 | 188
59 | OCc1cccc(-c2ccc(-c3cn([C@H]4CN5CCC4CC5)nn3)cc2)c1 | 207
60 | COc1cc2nc(N3CCN(C(=O)C=Cc4ccc(OC)c(OC)c4OC)CC3)nc(N)c2cc1OC | 263 to 264
61 | CNC(=O)c1sc(N2CCN(Cc3ccc(F)cc3)C2=O)nc1C | 225 to 227
62 | CCCCCCc1c(C(C)C)nc(C(C)C)c(C(C)O)c1-c1ccc(F)cc1 (centres undefined) | 75 to 77
63 | O=C(N[C@H]1CCCNC1=O)c1cccc(C(F)(F)F)c1 | 148 to 150
64 | Cc1cccc2c1CCN=C2c1ccc(Br)cc1 | 60 to 61.5
65 | CCCCCCCc1ccc(-c2ccc(C(=O)O)cc2)cc1 | 163
66 | O=C(O)c1ccc(O)c(C(O)C(Cl)Cl)c1 (centres undefined) | 214 to 215
67 | CC(C(=O)N(C)C)n1cc(C#N)c(-c2ccccc2)n1 (centres undefined) | 143 to 146
68 | COC1=Cc2c(c(=O)[nH]c3ccc(OC)cc23)[C@@H](C)C1 | 153 to 157
69 | CCOC(=O)Cc1ccc2c(c1)sc1ccccc12 | 60 to 62
70 | CCCCC(=NNC(=O)c1ccccc1)c1ccncc1 | 142
71 | CCc1cnc(SC(C)(C)C)c(C#N)c1 | 63 to 66
72 | CCOc1cc(Cl)ccc1C=NNC(=N)NN=Cc1ccc(Cl)cc1OCC | 180 to 182
73 | COc1ccc(-c2nc3cc(F)ccc3s2)cc1OC(=O)c1cccc([N+](=O)[O-])c1 | 212
74 | CC(=O)CCn1nc(C)c(-c2ccc3c(c2)NC(=O)CO3)c1-c1ccc(F)cc1 | 148 to 151
